The target in test [1] is T1, catalytic domain of human Bub1 (amino acids 704-1085) (Homo sapiens, UniProt O43683).
T1 construct: catalytic domain of human Bub1 (amino acids 704-1085); His6 (N); made in house; host or cells: Hi5 insect cells
The experiment in a line: Bub1 kinase assay (TR-FRET). The test is classed as biochemical. The method, boiled down: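 TR-FRET read-out (Eu-anti-mouse IgG/anti-phosphoserine antibody to streptavidin-XL665 on biotinylated peptide) after EDTA stop and 1 h complex formation at 22° C. Kinase reaction ran 60 min at 22° C with 1:3.4 serial dilutions from 2 mM DMSO stocks. IC50 from 4-parameter logistic fit of normalized inhibition.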
(In TR-FRET formats the signal depends on donor and acceptor labels being close together.)

The next test has as its target Bub1 (Homo sapiens, UniProt O43683). Briefly: Formation-Assay: phosphorylation status of histone 2A by inhibition of kinase activity of Bub1. It is filed as cell-based. Conditions: Biological Assay 4.1: H2A Formation IC50, co-treatment with Nocodazole 1 μg/ml, 16 h. The gist of the method: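 Cells co-treated 16 h with Nocodazole (1 μg/ml) and compound (3 nM–10 μM), then fixed and immunostained for phospho-H2A, read by infrared imaging (800 nm) normalised to cell stain (700 nm). Nocodazole-only set as 100%, untreated cells as 0%.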

The next test has as its system HeLa. Briefly: Proliferation assay (HeLa cell line).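 Note: crystal violet staining of cell number, scaled between a plate stained before dosing (0%) and cells left untreated (100%), compounds tested at 0.001-10 µM, IC50 via 4-parameter fit.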 As to conditions: Homo sapiens, 96 h, read-out: Biological Assay 2: Proliferation assay (HeLa cell line) median IC50.
Test [2] has as its system HeLa human cervical tumor cells. Briefly: Proliferation assay (HeLa+Paclitaxel).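 Note: compounds at 0.001-10 µM added 4 h after paclitaxel, 92 h exposure, absorbance normalized to zero-point plate (0%) and untreated cells (100%), IC50 from 4-parameter fit.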 Conditions: read-out: Biological Assay 3: HeLa + Paclitaxel IC50, 3 nM paclitaxel, crystal violet.
The mark [3] stands for this setting: Biological Assay 1: Bub1 kinase assay median IC50, 10 μM ATP.
Where [4] appears, read: 10 μM ATP, read-out: Biological Assay 1: Bub1 kinase assay median IC50.

Counter-ions that a name gives are not always drawn. Like-named read-outs stand apart in the source and are kept apart here.

Bub1, sequence (O43683 whole entry): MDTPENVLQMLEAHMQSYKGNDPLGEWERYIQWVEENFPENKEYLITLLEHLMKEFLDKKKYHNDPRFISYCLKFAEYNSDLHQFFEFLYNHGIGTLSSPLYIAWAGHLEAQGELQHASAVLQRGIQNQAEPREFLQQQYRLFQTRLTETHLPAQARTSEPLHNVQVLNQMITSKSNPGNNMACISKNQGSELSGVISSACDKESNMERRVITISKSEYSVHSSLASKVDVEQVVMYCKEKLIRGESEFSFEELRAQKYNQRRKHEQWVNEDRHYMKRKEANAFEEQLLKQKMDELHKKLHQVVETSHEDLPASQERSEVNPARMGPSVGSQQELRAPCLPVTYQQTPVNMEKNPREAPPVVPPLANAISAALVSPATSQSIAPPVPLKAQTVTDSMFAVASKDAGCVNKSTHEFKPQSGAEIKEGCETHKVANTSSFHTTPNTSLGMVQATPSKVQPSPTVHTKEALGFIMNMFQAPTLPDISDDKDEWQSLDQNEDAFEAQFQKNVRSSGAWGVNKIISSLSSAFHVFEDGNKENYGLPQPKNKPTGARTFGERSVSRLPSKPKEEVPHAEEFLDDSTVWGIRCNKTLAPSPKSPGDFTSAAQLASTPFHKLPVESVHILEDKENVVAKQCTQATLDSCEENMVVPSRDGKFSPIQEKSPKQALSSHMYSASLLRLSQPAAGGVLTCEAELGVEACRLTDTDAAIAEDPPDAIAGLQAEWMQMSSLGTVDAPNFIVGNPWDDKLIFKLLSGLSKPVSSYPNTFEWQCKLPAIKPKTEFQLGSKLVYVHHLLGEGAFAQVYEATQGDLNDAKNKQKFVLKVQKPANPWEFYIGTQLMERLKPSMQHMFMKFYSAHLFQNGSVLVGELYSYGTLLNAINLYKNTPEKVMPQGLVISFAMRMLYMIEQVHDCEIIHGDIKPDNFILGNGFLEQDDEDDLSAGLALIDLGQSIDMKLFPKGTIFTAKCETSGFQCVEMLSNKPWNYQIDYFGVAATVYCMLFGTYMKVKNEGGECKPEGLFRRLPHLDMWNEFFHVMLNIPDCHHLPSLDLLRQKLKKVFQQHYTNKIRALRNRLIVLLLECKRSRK
T1 sequence (O43683 704-1085): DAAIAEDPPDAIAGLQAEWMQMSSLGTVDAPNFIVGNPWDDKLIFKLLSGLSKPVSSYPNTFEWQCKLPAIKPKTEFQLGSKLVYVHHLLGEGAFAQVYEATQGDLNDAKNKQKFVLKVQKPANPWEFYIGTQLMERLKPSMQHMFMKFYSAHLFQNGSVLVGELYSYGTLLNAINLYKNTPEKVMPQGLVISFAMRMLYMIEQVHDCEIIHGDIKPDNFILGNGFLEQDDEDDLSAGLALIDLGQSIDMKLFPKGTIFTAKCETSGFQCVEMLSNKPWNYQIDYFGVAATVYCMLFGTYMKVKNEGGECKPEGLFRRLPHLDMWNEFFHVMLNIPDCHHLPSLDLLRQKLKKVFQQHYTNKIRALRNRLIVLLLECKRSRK

Regarding `CCOc1cc(F)c(Cn2nc(-c3ncc(C4CCN(CC(F)(F)F)CC4)c(Nc4ccncc4OC)n3)c3ccccc32)c(F)c1` [Example 2-20-4, 2-[1-(4-ethoxy-2,6-difluorobenzyl)-1H-indazol-3-yl]-N-(3-methoxypyridin-4-yl)-5-[1-(2,2,2-trifluoroethyl)piperidin-4-yl]pyrimidin-4-amine], the IC50 came out at 70 nM in test [1] (setting [3]), 31 nM on Bub1, 1100 nM in the test with HeLa and 66 nM in test [2].
For the molecule `OCCOc1cc(F)c(Cn2nc(-c3nc(CN4CCOCC4)cc(Nc4ccncc4)n3)c3ccccc32)c(F)c1` [Example 2-6-38, 2-[3,5-difluoro-4-({3-[4-(morpholin-4-ylmethyl)-6-(pyridin-4-ylamino)pyrimidin-2-yl]-1H-indazol-1-yl}methyl)phenoxy]ethanol], the IC50 in test [1] (setting [4]) is 10 nM; at Bub1, 2300 nM; in the test on HeLa, over 10000 nM; in test [2], 930 nM.
`CCOc1cc(F)c(Cn2nc(-c3ncc(C4CCN(CC(F)(F)F)CC4)c(Nc4ccnc(C)n4)n3)c3ccccc32)c(F)c1` [Example 2-20-2, 2-[1-(4-ethoxy-2,6-difluorobenzyl)-1H-indazol-3-yl]-N-(2-methylpyrimidin-4-yl)-5-[1-(2,2,2-trifluoroethyl)piperidin-4-yl]pyrimidin-4-amine]: the IC50 was 51 nM in test [1] (setting [3]), 9.1 nM at Bub1, over 10000 nM in the test with HeLa and 260 nM in test [2].
Regarding `CCOc1cc(F)c(Cn2nc(-c3nc4c(c(Nc5ccnc(C)c5)n3)CSC4)c3ccccc32)c(F)c1` [Example 2-19-4, 2-[1-(4-ethoxy-2,6-difluorobenzyl)-1H-indazol-3-yl]-N-(2-methylpyridin-4-yl)-5,7-dihydrothieno[3,4-d]pyrimidin-4-amine], the IC50 in test [1] (setting [4]) was 68 nM; on Bub1 it was 45 nM; with HeLa it was 1200 nM; in test [2], 130 nM.
Take `Cc1nccc(Nc2nc(-c3nn(Cc4c(F)cc(O)cc4F)c4ccccc34)nc3c2CCC3)n1` [Example 2-6-12, 3,5-difluoro-4-[(3-{4-[(2-methylpyrimidin-4-yl)amino]-6,7-dihydro-5H-cyclopenta[d]pyrimidin-2-yl}-1H-indazol-1-yl)methyl]phenol]: the IC50 in test [1] (setting [3]) is 44 nM; on Bub1, 2300 nM; in the test with HeLa it was over 10000 nM; in test [2], 2100 nM.
Take `CCOc1cc(F)c(Cn2nc(-c3ncc(C4CCN(CC(F)(F)F)CC4)c(Nc4ccncn4)n3)c3ccccc32)c(F)c1` [Example 2-20-3, 2-[1-(4-ethoxy-2,6-difluorobenzyl)-1H-indazol-3-yl]-N-(pyrimidin-4-yl)-5-[1-(2,2,2-trifluoroethyl)piperidin-4-yl]pyrimidin-4-amine]: the IC50 in test [1] (setting [3]) is 26 nM; at Bub1, 2.2 nM; with HeLa, over 10000 nM; in test [2], 980 nM.
With `OCCOc1cc(F)c(Cn2nc(-c3ncc(C4CCN(CC(F)(F)F)CC4)c(Nc4ccncc4Cl)n3)c3ccccc32)c(F)c1` [Example 2-6-14, 2-{4-[(3-{4-[(3-chloropyridin-4-yl)amino]-5-[1-(2,2,2-trifluoroethyl)piperidin-4-yl]pyrimidin-2-yl}-1H-indazol-1-yl)methyl]-3,5-difluorophenoxy} ethanol], the IC50 was 36 nM in test [1] (setting [3]), 7.1 nM on Bub1, 2400 nM with HeLa and 340 nM in test [2].
As to `CCOc1cc(F)c(Cn2nc(-c3nc(CN4CCOCC4)cc(Nc4ccncn4)n3)c3ccccc32)c(F)c1` [Example 2-12-47, 2-[1-(4-ethoxy-2,6-difluorobenzyl)-1H-indazol-3-yl]-6-(morpholin-4-ylmethyl)-N-(pyrimidin-4-yl)pyrimidin-4-amine], the IC50 in test [1] (setting [4]) turned out to be 5.2 nM; at Bub1 it was 2100 nM; in the test with HeLa it was 6100 nM; in test [2], 68 nM.
Regarding `CCOc1cc(F)c(Cn2nc(-c3nc4c(c(Nc5cc(C)ncc5C)n3)CC(C)(C)CC4)c3ccccc32)c(F)c1` [Example 2-12-68, N-(2,5-dimethylpyridin-4-yl)-2-[1-(4-ethoxy-2,6-difluorobenzyl)-1H-indazol-3-yl]-6,6-dimethyl-5,6,7,8-tetrahydroquinazolin-4-amine], the IC50 was 35 nM in test [1] (setting [4]), 3.8 nM at Bub1, 2700 nM with HeLa and 78 nM in test [2].
In the case of `CCOc1cc(F)c(Cn2nc(-c3ncc(CCN)c(Nc4ccnc(C(F)F)c4)n3)c3ccccc32)c(F)c1` [Example 2-9-10, 5-(2-aminoethyl)-N-[2-(difluorometh-yl)pyridin-4-yl]-2-[1-(4-ethoxy-2,6-difluorobenzyl)-1H-indazol-3-yl]pyrimidin-4-amine, salt with hydrochloric acid], the IC50 in test [1] (setting [4]) is 7.1 nM; on Bub1 it was 1500 nM; in the test on HeLa it was 1000 nM; in test [2], 54 nM.
With `CCOc1cc(F)c(Cn2nc(-c3ncc(CCCN4CCC(F)(F)CC4)c(Nc4ccncc4)n3)c3ccccc32)c(F)c1` [Example 2-2-18, 5-[3-(4,4-difluoropiperidin-1-yl)propyl]-2-[1-(4-ethoxy-2,6-difluorobenzyl)-1H-indazol-3-yl]-N-(pyridin-4-yl)pyrimidin-4-amine], the IC50 is 130 nM in test [1] (setting [3]), 8700 nM at Bub1, over 10000 nM with HeLa and 400 nM in test [2].
In the case of `CCOc1cc(F)c(Cn2nc(-c3ncc(CC4CN(CC(F)(F)F)C4)c(Nc4ccncc4)n3)c3ccccc32)c(F)c1` [Example 2-11-1, 2-[1-(4-ethoxy-2,6-difluorobenzyl)-1H-indazol-3-yl]-N-(pyridin-4-yl)-5-{[1-(2,2,2-trifluoroethyl)azetidin-3-yl]methyl}pyrimidin-4-amine], the IC50 is 62 nM in test [1] (setting [3]), 41 nM at Bub1, over 10000 nM with HeLa and 230 nM in test [2].
For the molecule `CCOc1cc(F)c(Cn2nc(-c3ncc(CCCCN4CCCC(F)(F)C4)c(Nc4ccncc4)n3)c3ccccc32)c(F)c1` [Example 2-2-17, 5-[4-(3,3-difluoropiperidin-1-yl)butyl]-2-[1-(4-ethoxy-2,6-difluorobenzyl)-1H-indazol-3-yl]-N-(pyridin-4-yl)pyrimidin-4-amine], the IC50 in test [1] (setting [3]) worked out at 95 nM; at Bub1, 1200 nM; in the test with HeLa, 9300 nM; in test [2], 340 nM.
On to `CCOc1cc(F)c(Cn2nc(-c3ncc(CC(C)(C)N)c(Nc4ccncc4)n3)c3ccccc32)c(F)c1` [Example 2-9-18, 5-(2-amino-2-methylpropyl)-2-[1-(4-ethoxy-2,6-difluorobenzyl)-1H-indazol-3-yl]-N-(pyridin-4-yl)pyrimidin-4-amine, salt with hydrochloric acid], for which the IC50 was 15 nM in test [1] (setting [4]), 6.7 nM on Bub1, 5500 nM with HeLa and 170 nM in test [2].
For the molecule `CCOc1cc(F)c(Cn2nc(-c3nc(CN4CCOCC4)cc(Nc4ccnc(NC(C)=O)c4)n3)c3ccccc32)c(F)c1` [Example 2-12-14, N-[4-({2-[1-(4-ethoxy-2,6-difluorobenzyl)-1H-indazol-3-yl]-6-(morpholin-4-ylmethyl)pyrimidin-4-yl}amino)pyridin-2-yl]acetamide], the IC50 in test [1] (setting [4]) was 8.8 nM; on Bub1, 11 nM; in the test with HeLa, 1800 nM; in test [2] it was 100 nM.
Regarding `Cc1nccc(Nc2nc(-c3nn(Cc4c(F)cc(OCCO)cc4F)c4ccccc34)nc3c2CC(C)(C)C3)n1` [Example 2-6-22, 2-{4-[(3-{6,6-dimethyl-4-[(2-methylpyrimidin-4-yl)amino]-6,7-dihydro-5H-cyclopenta[d]pyrimidin-2-yl}-1H-indazol-1-yl)methyl]-3,5-difluorophenoxy} ethanol], the IC50 worked out at 81 nM in test [1] (setting [3]), 180 nM on Bub1, 9200 nM in the test on HeLa and 99 nM in test [2].
As for `CCOc1cc(F)c(Cn2nc(-c3ncc(CC4CNC4)c(Nc4ccncc4)n3)c3ccccc32)c(F)c1` [Example 2-9-4, 5-(azetidin-3-ylmethyl)-2-[1-(4-ethoxy-2,6-difluorobenzyl)-1H-indazol-3-yl]-N-(pyridin-4-yl)pyrimidin-4-amine, salt with hydrochloric acid], the IC50 in test [1] (setting [4]) was 7.8 nM; at Bub1, 440 nM; in the test on HeLa, 1900 nM; in test [2], 420 nM.
In the case of `CCOc1cc(F)c(Cn2nc(-c3nc(CN4CCOCC4)cc(Nc4ccncc4Cl)n3)c3ccccc32)c(F)c1` [Example 2-12-34, N-(3-chloropyridin-4-yl)-2-[1-(4-ethoxy-2,6-difluorobenzyl)-1H-indazol-3-yl]-6-(morpholin-4-ylmethyl)pyrimidin-4-amine], the IC50 in test [1] (setting [4]) worked out at 36 nM; on Bub1 it was 700 nM; with HeLa, 7800 nM; in test [2] it was 500 nM.
As for `CCOc1cc(F)c(Cn2nc(-c3ncc(C4CCNCC4)c(Nc4ccnc(NC(C)=O)c4)n3)c3ccccc32)c(F)c1` [Example 2-17-2, N-[4-({2-[1-(4-ethoxy-2,6-difluorobenzyl)-1H-indazol-3-yl]-5-(piperidin-4-yl)pyrimidin-4-yl}amino)pyridin-2-yl]acetamide], the IC50 turned out to be 8.6 nM in test [1] (setting [3]), 4.8 nM on Bub1, 3100 nM in the test on HeLa and 190 nM in test [2].

Values taken from patent US20170275270A1, “BENZYL SUBSTITUTED INDAZOLES” (Bayer Pharma Aktiengesellschaft, priority 2014, published 2017).
